Test results as given in BindingDB's records for doi:10.1021/bi401354d (Pfizer, 2013).

Molecular target: T1, Myeloperoxidase (Homo sapiens, UniProt P05164)
T1 sequence (P05164 whole entry): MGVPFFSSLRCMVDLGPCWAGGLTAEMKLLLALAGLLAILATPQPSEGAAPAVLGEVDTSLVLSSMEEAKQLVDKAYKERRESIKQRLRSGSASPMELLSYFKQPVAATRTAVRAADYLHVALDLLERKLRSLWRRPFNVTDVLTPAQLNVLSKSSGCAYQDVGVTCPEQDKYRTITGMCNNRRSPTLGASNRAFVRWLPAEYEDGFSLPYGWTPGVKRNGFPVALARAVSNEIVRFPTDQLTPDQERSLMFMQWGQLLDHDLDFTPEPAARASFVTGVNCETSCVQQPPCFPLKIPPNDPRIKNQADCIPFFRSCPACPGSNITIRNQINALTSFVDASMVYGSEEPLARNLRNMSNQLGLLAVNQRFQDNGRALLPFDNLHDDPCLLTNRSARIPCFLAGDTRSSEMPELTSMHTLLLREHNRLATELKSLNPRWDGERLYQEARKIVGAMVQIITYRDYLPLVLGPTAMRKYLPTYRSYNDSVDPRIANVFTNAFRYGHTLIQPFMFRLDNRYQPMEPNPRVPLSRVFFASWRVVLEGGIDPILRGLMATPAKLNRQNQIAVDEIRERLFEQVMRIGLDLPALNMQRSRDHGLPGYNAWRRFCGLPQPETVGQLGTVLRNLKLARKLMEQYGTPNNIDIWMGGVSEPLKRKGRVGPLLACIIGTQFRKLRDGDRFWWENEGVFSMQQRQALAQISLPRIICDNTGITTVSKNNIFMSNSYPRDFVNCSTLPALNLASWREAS
Test: MPO Activity Assay
Conditions: pH 7.4
Procedure: Assay mixtures (100 µL) contained 50 mM NaPi (pH 7.4), 150 mM NaCl, 1 mM DTPA, 2% DMSO, the indicated concentrations of H2O2, and Amplex Red. The reactions were initiated by the addition of 100 pM MPO. The fluorescent changes were measured at 530 (excitation) and 580 nm (emission).

Ki | SMILES
413 nM | CCOC(C)Cn1c(=S)[nH]c(=O)c2[nH]cnc21 (stereo not drawn) [3‐(2‐ethoxypropyl)‐2‐sulfanylidene‐1,9‐ dihydropurin‐6‐one (A)]
546 nM | CCO[C@H](C)Cn1c(=S)[nH]c(=O)c2[nH]cnc21 [3‐[(2R)‐2‐ethoxypropyl]‐2‐sulfanylidene‐1,9‐ dihydropurin‐6‐one (C)]
429 nM | CCO[C@@H](C)Cn1c(=S)[nH]c(=O)c2[nH]cnc21 [3‐[(2S)‐2‐ethoxypropyl]‐2‐sulfanylidene‐1,9‐ dihydropurin‐6‐one (D)]
